Numbers after ± are expanded uncertainties.
Assay: activity coefficient (dimensionless); of the first substance listed, at infinite dilution; xn = mol fraction of the nth substance listed
Conditions: 101.33 kPa, Liquid, Chromatography, x1 = 0

Row | SMILES | activity coefficient (298.15 K) | activity coefficient (313.15 K) | activity coefficient (328.15 K)
1 | C1CCCCC1 [cyclohexane] + CCCCCCCCOS(=O)(=O)[O-].CCCCn1cc[n+](C)c1 | 4.92 ± 0.34 | 5.02 ± 0.34 | 5.17 ± 0.35
2 | C=CCCCC [hex-1-ene] + CCCCCCCCOS(=O)(=O)[O-].CCCCn1cc[n+](C)c1 | 5.43 ± 0.37 | 5.76 ± 0.39 | 6.13 ± 0.42
3 | CO [methanol] + CCCCCCCCOS(=O)(=O)[O-].CCCCn1cc[n+](C)c1 | 0.386 ± 0.033 | 0.369 ± 0.033 | 0.36 ± 0.033
4 | C1CCCCCC1 [cycloheptane] + CCCCCCCCOS(=O)(=O)[O-].CCCCn1cc[n+](C)c1 | 5.43 ± 0.37 | 5.52 ± 0.38 | 5.68 ± 0.39
5 | C1CCCC1 [cyclopentane] + CCCCCCCCOS(=O)(=O)[O-].CCCCn1cc[n+](C)c1 | 4.09 ± 0.28 | 4.24 ± 0.29 | 4.39 ± 0.3
6 | ClC(Cl)(Cl)Cl [tetrachloromethane] + CCCCCCCCOS(=O)(=O)[O-].CCCCn1cc[n+](C)c1 | 1.65 ± 0.11 | 1.74 ± 0.12 | 1.85 ± 0.12
7 | Cc1ccccc1 [toluene] + CCCCCCCCOS(=O)(=O)[O-].CCCCn1cc[n+](C)c1 | 1.98 ± 0.13 | 2.02 ± 0.14 | 2.08 ± 0.14
8 | c1ccccc1 [benzene] + CCCCCCCCOS(=O)(=O)[O-].CCCCn1cc[n+](C)c1 | 1.42 ± 0.09 | 1.44 ± 0.09 | 1.45 ± 0.1
9 | C#CCCCC [1-hexyne] + CCCCCCCCOS(=O)(=O)[O-].CCCCn1cc[n+](C)c1 | 2.25 ± 0.15 | 2.38 ± 0.16 | 2.56 ± 0.17

Next, values leading:

Row | activity coefficient (298.15 K) | activity coefficient (313.15 K) | activity coefficient (328.15 K) | SMILES
10 | 7.21 ± 0.49 | 7.59 ± 0.52 | 7.98 ± 0.54 | CCCCCC [hexane] + CCCCCCCCOS(=O)(=O)[O-].CCCCn1cc[n+](C)c1
11 | 2.66 ± 0.18 | 2.85 ± 0.19 | 3.08 ± 0.21 | C#CCCCCC [1-heptyne] + CCCCCCCCOS(=O)(=O)[O-].CCCCn1cc[n+](C)c1
12 | 7.38 ± 0.5 | 7.53 ± 0.51 | 7.88 ± 0.54 | C=CCCCCCC [oct-1-ene] + CCCCCCCCOS(=O)(=O)[O-].CCCCn1cc[n+](C)c1
13 | 9.63 ± 0.66 | 9.96 ± 0.68 | 10.3 ± 0.7 | CCCCCCCC [octane] + CCCCCCCCOS(=O)(=O)[O-].CCCCn1cc[n+](C)c1
14 | 3.25 ± 0.22 | 3.42 ± 0.23 | 3.65 ± 0.25 | C#CCCCCCC [1-octyne] + CCCCCCCCOS(=O)(=O)[O-].CCCCn1cc[n+](C)c1
15 | 8.27 ± 0.56 | 8.58 ± 0.59 | 9 ± 0.61 | CCCCCCC [heptane] + CCCCCCCCOS(=O)(=O)[O-].CCCCn1cc[n+](C)c1
16 | 6.63 ± 0.45 | 7.14 ± 0.49 | – | CCCCC [pentane] + CCCCCCCCOS(=O)(=O)[O-].CCCCn1cc[n+](C)c1

From the NIST ThermoML archive (doi:10.1021/je0500375)
